From publication PMC3531252 (EJNMMI Research, 2012) come the findings set out here.

Where “and” joins values, the source holds several entries; their conditions need not be identical. Equal values may be shown once.

In assay [1] the target is T1, GlyT1 (Homo sapiens, UniProt P48067).
T1 construct: whole-hemisphere autoradiography (ARG) on human brain slices; from tissue; host or cells: post-mortem human brain whole-hemisphere cryosections
T1 sequence (P48067 1-706): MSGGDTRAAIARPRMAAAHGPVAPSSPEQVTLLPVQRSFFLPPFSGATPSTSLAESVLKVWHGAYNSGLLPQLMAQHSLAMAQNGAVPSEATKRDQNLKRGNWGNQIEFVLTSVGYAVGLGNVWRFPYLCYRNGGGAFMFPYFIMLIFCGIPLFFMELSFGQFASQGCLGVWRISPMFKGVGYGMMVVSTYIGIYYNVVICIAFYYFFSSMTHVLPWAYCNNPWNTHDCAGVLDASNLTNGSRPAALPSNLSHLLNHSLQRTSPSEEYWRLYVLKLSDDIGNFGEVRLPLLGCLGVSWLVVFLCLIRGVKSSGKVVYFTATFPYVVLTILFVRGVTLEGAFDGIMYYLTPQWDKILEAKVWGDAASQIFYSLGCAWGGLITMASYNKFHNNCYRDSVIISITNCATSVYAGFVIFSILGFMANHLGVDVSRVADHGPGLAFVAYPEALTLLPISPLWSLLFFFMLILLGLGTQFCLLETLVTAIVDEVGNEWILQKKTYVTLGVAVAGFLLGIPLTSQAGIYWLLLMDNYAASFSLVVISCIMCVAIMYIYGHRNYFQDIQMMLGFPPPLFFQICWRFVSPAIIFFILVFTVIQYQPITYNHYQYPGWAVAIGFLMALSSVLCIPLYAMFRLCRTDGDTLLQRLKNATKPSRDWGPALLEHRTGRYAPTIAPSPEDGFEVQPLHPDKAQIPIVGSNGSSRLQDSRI
Description: in vitro whole-hemisphere autoradiography on human brain slices. Type of assay: binding. The conditions noted are these: blocker 10 μM.
Description: Human brains without pathology were obtained from the National Institute of Forensic Medicine, Karolinska Institutet (Stockholm, Sweden) as well as from the Department of Forensic and Insurance Medicine, Semmelweis University, Budapest. […] The sectioning of the brains and the autoradiography experiments were performed at the Department of Clinical Neuroscience, Karolinska Institutet. The cryosectioning took place on a Leica cryomacrocut system (San Marcos, CA, USA) [28, 29]. Horizontal sections (100 μm thick, containing cerebral cortex, white matter, cerebellum, and pons) and coronal sections (100 μm thick, containing cerebral cortex, white matter, putamen, and caudate nucleus) were used. […] For comparison with other GlyT1 radioligands, blocking was also made with SSR504734 (10 μM). The slices were rinsed thrice for 3 min each with cold (5°C) washing buffer (120 mM NaCl, 50 mM Tris–HCl, pH = 7.5) and subsequently dipped into cold water. The slides were then placed on an imaging plate (Fujifilm Plate BAS-TR2025, Fujifilm, Tokyo, Japan) for 20 min. The plates were developed, and the resulting images were processed in a Fujifilm BAS-5000 phosphorimager (Fujifilm, Tokyo, Japan). […] The autoradiography (ARG) signal's optical density was measured using Multi Gauge 3.2 image analysis software (Fujifilm, Tokyo, Japan).

Assay [2] concerns GlyT1. Put plainly: GlyT1 occupancy and VND by Lassen plot, PET in rhesus monkeys. It counts as in vivo, rhesus monkey. The conditions noted are these: for GlyT1 occupancy: seven regions. As for the experimental part: PET measurements were performed for 123 min immediately after i.v. injection of radioligand at baseline and after pretreatment with SSR504734. SSR504734 was administered over 15 min, starting 30 min before the radioligand injection. PET measurements were performed on two separate days with two monkeys. One baseline PET measurement and one PET measurement after pretreatment with 1.5 mg/kg of SSR504734 were performed on one monkey. One baseline PET measurement and one PET measurement after pretreatment with 4.5 mg/kg were performed on the other monkey.
GlyT1 occupancy was estimated by applying Lassen plot approach, which can determine nondisplaceable distribution volume (VND) and occupancy using VT values at baseline and after pretreatment. Seven regions (the pons, cerebellum, putamen, frontal cortex, caudate, anterior cingulate cortex, and temporal cortex) were used for the plot.

As for `O=C(N[C@@H](c1ccccc1)[C@@H]1CCCCN1)c1cccc(C(F)(F)F)c1Cl` [SSR504734, reference compound], the “reduction of [11C]N-methyl-SSR504734 binding by blocker” value on GlyT1 [1] was “prominent in the white matter and pons”. Besides, the GlyT1 occupancy in the assay with GlyT1 [2] (1.5 mg/kg SSR504734, rhesus monkey 1, Lassen plot) is 45% and 45.2%; in the assay with GlyT1 [2] (4.5 mg/kg SSR504734, rhesus monkey 2, Lassen plot), 74.3%. The “Kd of occupancy-dose relationship” value with GlyT1 [2] (Omax assumed 100%) came out at 1.7 mg/kg.
